Laboratory results: the NIST ThermoML archive (doi:10.1016/j.tca.2014.07.018)

Experiment: molar heat capacity at saturation pressure
Settings: Crystal, Small (less than 1 g) adiabatic calorimetry

C1C2CC3CC1CC(c1nnn[nH]1)(C2)C3 [5-(1-adamantyl)tetrazole]
Settings | molar heat capacity [J/K/mol]
5.162 K | 0.5343
5.486 K | 0.6514
5.811 K | 0.7886
6.141 K | 0.9446
6.535 K | 1.157
6.999 K | 1.433
7.466 K | 1.748
7.944 K | 2.099
8.427 K | 2.496
8.915 K | 2.914
9.407 K | 3.374
9.905 K | 3.847
10.47 K | 4.424
11.12 K | 5.106
11.77 K | 5.817
12.42 K | 6.568
13.1 K | 7.361
13.77 K | 8.166
14.45 K | 9.013
15.14 K | 9.87
15.93 K | 10.87
16.83 K | 12.03
17.74 K | 13.17
18.65 K | 14.31
19.56 K | 15.45
20.76 K | 16.96
22.25 K | 18.79
23.76 K | 20.65
25.27 K | 22.46
26.78 K | 24.22
28.31 K | 25.96
29.59 K | 27.43
31.31 K | 29.26
33.16 K | 31.15
35.01 K | 33.01
36.86 K | 34.76
38.72 K | 36.52
40.58 K | 38.18
42.54 K | 39.91
44.6 K | 41.62
46.67 K | 43.41
48.74 K | 45.04
50.82 K | 46.64
52.9 K | 48.22
54.99 K | 49.8
57.07 K | 51.31
59.17 K | 52.73
61.28 K | 54.19
63.38 K | 55.67
65.49 K | 57.06
67.6 K | 58.52
69.71 K | 59.93
71.92 K | 61.4
74.24 K | 62.88
76.57 K | 64.45
78.7 K | 65.87
78.9 K | 65.93
80.66 K | 67.14
81.23 K | 67.48
82.56 K | 68.36
83.56 K | 68.98
84.46 K | 69.59
86.37 K | 70.82
88.29 K | 72.06
90.2 K | 73.3
92.12 K | 74.53
94.04 K | 75.78
95.96 K | 77.1
97.9 K | 78.34
99.83 K | 79.61
101.75 K | 80.79
103.69 K | 82.06
105.62 K | 83.32
107.56 K | 84.62
109.51 K | 85.87
111.45 K | 87.18
113.4 K | 88.45
115.36 K | 89.75
117.32 K | 91.05
119.27 K | 92.33
121.23 K | 93.59
123.19 K | 94.91
125.16 K | 96.2
127.12 K | 97.48
129.09 K | 98.86
131.06 K | 100.1
133.04 K | 101.5
135.02 K | 102.8
137 K | 104.2
138.98 K | 105.5
140.97 K | 106.9
142.95 K | 108.3
144.93 K | 109.7
146.93 K | 111.1
148.92 K | 112.6
150.91 K | 114
152.9 K | 115.4
154.89 K | 116.8
156.89 K | 118.3
158.89 K | 119.8
160.89 K | 121.3
162.89 K | 122.7
164.89 K | 124.3
166.9 K | 125.8
168.9 K | 127.4
170.91 K | 128.9
172.92 K | 130.5
174.93 K | 132
176.93 K | 133.7
178.93 K | 135.1
180.94 K | 136.8
182.95 K | 138.3
184.97 K | 140.1
186.99 K | 141.6
189 K | 143.3
191.02 K | 144.9
193.03 K | 146.6
195.05 K | 148.4
197.07 K | 150.1
199.09 K | 151.7
201.1 K | 153.4
203.13 K | 155.1
205.16 K | 156.8
207.18 K | 158.6
209.21 K | 160.4
211.24 K | 162.1
213.27 K | 163.9
215.3 K | 165.7
217.33 K | 167.6
219.37 K | 169.4
221.4 K | 171.2
223.43 K | 173
224.08 K | 173.6
225.46 K | 174.9
226.05 K | 175.4
227.5 K | 176.8
228.08 K | 177.3
230.12 K | 179.2
232.16 K | 181.1
234.19 K | 183.1
236.23 K | 184.9
238.27 K | 186.8
240.31 K | 188.8
242.35 K | 190.8
244.39 K | 192.5
246.43 K | 194.5
248.47 K | 196.4
250.51 K | 198.4
252.55 K | 200.3
254.59 K | 202.2
256.64 K | 204.1
258.68 K | 206.2
260.73 K | 208
262.77 K | 209.9
264.81 K | 211.9
266.86 K | 213.7
268.9 K | 215.5
270.94 K | 217.3
272.99 K | 219.2
275.03 K | 221
277.08 K | 222.9
279.13 K | 224.5
281.18 K | 226.3
283.22 K | 227.9
285.27 K | 229.8
287.32 K | 231.5
289.37 K | 233.1
291.42 K | 234.7
293.46 K | 236.3
295.51 K | 237.9
297.56 K | 239.7
299.61 K | 241.3
301.65 K | 242.8
303.7 K | 244.6
305.75 K | 246
307.8 K | 247.6
309.86 K | 249.2
311.91 K | 250.7
313.96 K | 252.3
316.02 K | 253.9
318.07 K | 255.5
320.14 K | 256.9
322.2 K | 258.6
324.26 K | 260.2
326.32 K | 261.8
328.38 K | 263.2
330.44 K | 264.8
332.5 K | 266.3
334.57 K | 267.8
336.63 K | 269.4
338.69 K | 270.9
340.76 K | 272.4
342.83 K | 274.2
344.9 K | 275.7
346.97 K | 277.1
349.04 K | 278.9
351.11 K | 280.5
353.2 K | 282.1
355.27 K | 283.8
357.34 K | 285.5
359.41 K | 287.2
361.48 K | 288.9
363.56 K | 290.4
365.63 K | 292
367.7 K | 293.7
